This is an account of results in US20120258980A1, “Antibacterial Agent for Drug-Resistant Bacteria, Method for Screening for Same, and Use of Same” (priority 2009, published 2012).

Assay [1] concerns VRSA clinical isolates. Description: microbe, parasite or virus in culture. In kind it is cell-based. Particulars: Staphylococcus aureus. Here is the method: Each of the bacterial strains listed in Table 1-1 was shake-cultured at 37° C. overnight in 4 mL of a medium (Tryptical Soy Broth: TSB, product of Becton Dickinson and Company). FDA209P was used as a control.
After completion of culturing, the resultant culture was suspended in a cation-adjusted Mueller Hinton Broth (CAMHB, product of Becton Dickinson and Company). Then, the obtained bacterial culture was adjusted in absorbance with the CAMHB so that the absorbance at 578 nm of the bacterial culture was adjusted to 0.3 measured by an absorption spectrometer. In addition, the resultant bacterial culture was 500-fold diluted with the CAMHB.
Each of the 500-fold diluted, pre-cultured bacterial cultures was added at 50 μL/well to the CAMHB containing the quinolones and the nybomycins at various concentrations (50 μL/well), followed by statically culturing at 37° C. overnight.
After completion of culturing, the growth of the bacteria was visually determined based on turbidity to measure MIC in each bacterial strain.
Here, the glycopeptides used were VCM and TEIC. The β-lactam used was OXA.

The subject of assay [2] is VRSA clinical isolates. Particulars: based on NARSA, cited from earlier work.

Values after ≈ are worked out from the molar mass of the structure shown. Structures can show the parent of a compound that is named as a salt. Where two headings read alike, the source gives them in different places.

With `C[C@H]1COc2c(N3CCN(C)CC3)c(F)cc3c(=O)c(C(=O)O)cn1c23` [LVFX, levofloxacin], the MIC was 16 µg/mL (≈ 44.3 µM) against VRSA clinical isolates [1] (VRS1, VRSA, Michigan); 16 µg/mL (≈ 44.3 µM) against VRSA clinical isolates [1] (VRS2, VRSA, Pennsylvania); 16 µg/mL (≈ 44.3 µM) against VRSA clinical isolates [1] (VRS3, VRSA, New York); 32 µg/mL (≈ 88.6 µM) with VRSA clinical isolates [1] (VRS4, VRSA, New York); above 128 µg/mL against VRSA clinical isolates [1] (VRS5, VRSA, Michigan); 32 µg/mL (≈ 88.6 µM) with VRSA clinical isolates [1] (VRS6, VRSA, Michigan). Further, the MIC against VRSA clinical isolates [1] (VRS7, VRSA, Michigan) is 32 µg/mL (≈ 88.6 µM).
With `CN[C@H](CC(C)C)C(=O)N[C@H]1C(=O)N[C@@H](CC(N)=O)C(=O)N[C@H]2C(=O)N[C@H]3C(=O)N[C@H](C(=O)N[C@H](C(=O)O)c4cc(O)cc(O)c4-c4cc3ccc4O)[C@H](O)c3ccc(c(Cl)c3)Oc3cc2cc(c3O[C@@H]2O[C@H](CO)[C@@H](O)[C@H](O)[C@H]2O[C@H]2C[C@](C)(N)[C@H](O)[C@H](C)O2)Oc2ccc(cc2Cl)[C@H]1O` [VCM, vancomycin], the MIC in the assay on VRSA clinical isolates [2] (VRS1, VRSA, Michigan) was above 256 mg/L; in the assay on VRSA clinical isolates [2] (VRS2, VRSA, Pennsylvania), 64 mg/L (≈ 44.2 µM); with VRSA clinical isolates [2] (VRS3, VRSA, New York) it was above 32 mg/L; with VRSA clinical isolates [2] (VRS4, VRSA, New York), above 32 mg/L; in the assay with VRSA clinical isolates [2] (VRS5, VRSA, Michigan) it was above 256 mg/L; with VRSA clinical isolates [2] (VRS6, VRSA, Michigan), above 256 mg/L. In the assay on VRSA clinical isolates [2] (VRS7, VRSA, Michigan), the MIC was above 256 mg/L.
As to `NC1CCN(c2nc3c(cc2F)c(=O)c(C(=O)O)cn3-c2ccc(F)cc2F)C1` (stereo not drawn) [TFLX, tosufloxacin tosylate], the MIC with VRSA clinical isolates [1] (VRS1, VRSA, Michigan) was 4 µg/mL; in the assay with VRSA clinical isolates [1] (VRS2, VRSA, Pennsylvania), above 128 µg/mL; with VRSA clinical isolates [1] (VRS3, VRSA, New York) it was above 128 µg/mL; against VRSA clinical isolates [1] (VRS4, VRSA, New York) it was above 128 µg/mL; in the assay on VRSA clinical isolates [1] (VRS5, VRSA, Michigan), above 128 µg/mL; with VRSA clinical isolates [1] (VRS6, VRSA, Michigan), above 128 µg/mL. In the assay on VRSA clinical isolates [1] (VRS7, VRSA, Michigan), this compound registered an MIC of 4 µg/mL.
Take `CCn1cc(C(=O)O)c(=O)c2cc(F)c(N3CCNCC3)cc21` [NFLX, norfloxacin]: the MIC in the assay with VRSA clinical isolates [1] (VRS1, VRSA, Michigan) is above 128 µg/mL; in the assay on VRSA clinical isolates [1] (VRS2, VRSA, Pennsylvania), above 128 µg/mL; against VRSA clinical isolates [1] (VRS3, VRSA, New York) it was 128 µg/mL (≈ 401 µM); against VRSA clinical isolates [1] (VRS4, VRSA, New York), 128 µg/mL (≈ 401 µM); in the assay with VRSA clinical isolates [1] (VRS5, VRSA, Michigan), above 128 µg/mL; against VRSA clinical isolates [1] (VRS6, VRSA, Michigan) it was above 128 µg/mL. The same compound gave an MIC against VRSA clinical isolates [1] (VRS7, VRSA, Michigan) above 128 µg/mL.
For `CC1COc2c(N3CCN(C)CC3)c(F)cc3c(=O)c(C(=O)O)cn1c23` (stereo not drawn) [OFLX, ofloxacin], the MIC against VRSA clinical isolates [1] (VRS1, VRSA, Michigan) was 32 µg/mL (≈ 88.6 µM); against VRSA clinical isolates [1] (VRS2, VRSA, Pennsylvania), 32 µg/mL (≈ 88.6 µM); in the assay on VRSA clinical isolates [1] (VRS3, VRSA, New York) it was 32 µg/mL (≈ 88.6 µM); against VRSA clinical isolates [1] (VRS4, VRSA, New York), 32 µg/mL (≈ 88.6 µM); against VRSA clinical isolates [1] (VRS5, VRSA, Michigan), above 128 µg/mL; with VRSA clinical isolates [1] (VRS6, VRSA, Michigan), 64 µg/mL (≈ 177 µM). In addition, the MIC in the assay on VRSA clinical isolates [1] (VRS7, VRSA, Michigan) came out at 64 µg/mL (≈ 177 µM).
As for `Cc1cc(=O)n2c3c(c4c(cc13)c(CO)cc(=O)n4C)OC2` [NM, nybomycin], the MIC is 0.125 µg/mL (≈ 0.419 µM) with VRSA clinical isolates [1] (VRS1, VRSA, Michigan); 0.25 µg/mL (≈ 0.838 µM) with VRSA clinical isolates [1] (VRS2, VRSA, Pennsylvania); 0.125 µg/mL (≈ 0.419 µM) against VRSA clinical isolates [1] (VRS3, VRSA, New York); 0.125 µg/mL (≈ 0.419 µM) in the assay on VRSA clinical isolates [1] (VRS4, VRSA, New York); at most 0.063 µg/mL in the assay with VRSA clinical isolates [1] (VRS5, VRSA, Michigan); at most 0.063 µg/mL with VRSA clinical isolates [1] (VRS6, VRSA, Michigan). The compound also returned an MIC with VRSA clinical isolates [1] (VRS7, VRSA, Michigan) of 0.5 µg/mL (≈ 1.68 µM).
In the case of `C[C@@H]1CN(c2c(F)c(N)c3c(=O)c(C(=O)O)cn(C4CC4)c3c2F)C[C@H](C)N1` [SPFX, sparfloxacin], the MIC against VRSA clinical isolates [1] (VRS1, VRSA, Michigan) was determined as 8 µg/mL (≈ 20.4 µM); in the assay on VRSA clinical isolates [1] (VRS2, VRSA, Pennsylvania), 8 µg/mL (≈ 20.4 µM); against VRSA clinical isolates [1] (VRS3, VRSA, New York) it was 16 µg/mL (≈ 40.8 µM); with VRSA clinical isolates [1] (VRS4, VRSA, New York), 16 µg/mL (≈ 40.8 µM); against VRSA clinical isolates [1] (VRS5, VRSA, Michigan), 128 µg/mL (≈ 326 µM); in the assay with VRSA clinical isolates [1] (VRS6, VRSA, Michigan), 16 µg/mL (≈ 40.8 µM). The MIC against VRSA clinical isolates [1] (VRS7, VRSA, Michigan) was 16 µg/mL (≈ 40.8 µM).
As for `Cc1onc(-c2ccccc2)c1C(=O)N[C@@H]1C(=O)N2[C@@H]1SC(C)(C)[C@@H]2C(=O)O` [OXA, oxacillin], the MIC with VRSA clinical isolates [2] (VRS1, VRSA, Michigan) was above 16 mg/L; with VRSA clinical isolates [2] (VRS2, VRSA, Pennsylvania), above 16 mg/L; with VRSA clinical isolates [2] (VRS3, VRSA, New York), above 16 mg/L; in the assay on VRSA clinical isolates [2] (VRS4, VRSA, New York), above 16 mg/L; with VRSA clinical isolates [2] (VRS5, VRSA, Michigan), above 16 mg/L; with VRSA clinical isolates [2] (VRS6, VRSA, Michigan), above 16 mg/L. The MIC in the assay with VRSA clinical isolates [2] (VRS7, VRSA, Michigan) was 8 mg/L (≈ 19.9 µM).
As to `Cc1cc(=O)n(C)c2c3c4c(cc12)c(C)cc(=O)n4CO3` [DNM, deoxynybomycin], the MIC against VRSA clinical isolates [1] (VRS1, VRSA, Michigan) is at most 0.063 µg/mL; against VRSA clinical isolates [1] (VRS2, VRSA, Pennsylvania), 0.125 µg/mL (≈ 0.443 µM); against VRSA clinical isolates [1] (VRS3, VRSA, New York), at most 0.063 µg/mL; against VRSA clinical isolates [1] (VRS4, VRSA, New York), at most 0.063 µg/mL; in the assay on VRSA clinical isolates [1] (VRS5, VRSA, Michigan), at most 0.063 µg/mL; against VRSA clinical isolates [1] (VRS6, VRSA, Michigan), at most 0.063 µg/mL. The MIC against VRSA clinical isolates [1] (VRS7, VRSA, Michigan) stood at 0.125 µg/mL (≈ 0.443 µM).
